Results on one compound are retold here after patent US4032645A, “Injectable metronidazole composition” (G. D. Searle & Co., priority 1975, dated 1977).

For data set [1] the following is noted: water; cited from earlier work.
Data set [2] is classed as physicochemical. As to conditions: for amount dissolved: ethanol. The text has this: The critical features of the solubility of metronidazole, [1-(2-hydroxyethyl)-2-methyl-5-nitroimidazole] are evident from FIGS. 1 through 6.
It is observed that the optimum solubility in water-ethanol mixtures occur at about 80% ethanol.
It is considered desirable to maintain N,N-dimethylacetamide concentrations in any formulation at a relatively low level. In FIG. 2, it is shown that 20% N,N-dimethylacetamide is not a suitable solvent system in combination with water or ethanol alone. Those satisfied with less desirable formulation could use a solvent system of 20% N,N-dimethylacetamide, 40% water, and 40% ethanol. […] One would also believe this for combinations of 30% N,N-dimethylacetamide and water and ethanol.
It can be observed from FIG. 3 that, unexpectedly, a solvent system of 30% N,N-dimethylacetamide in combination with the indicated proportions of ethanol and water solubilizes more than 500 mg./10 ml. of metronidazole.
Also, unexpectedly, FIGS. 4, 5 and 6 illustrate that the combination of ethanol, water and N,N-dimethylacetamide can be made to dissolve more than 500 mg. of metronidazole by the addition of nicotinamide, propylene glycol or 2,2-dimethyl-1,3-dioxolane-4-methanol. These systems have the advantages of an even lower percentage composition of N,N-dimethylacetamide. Optimum systems and the solubility of metroinidazole therein are illustrated in Table 1.

The conditions of data set [3]: most stable at a pH range; cited from earlier work.

The structures appear in SMILES notation. Read-outs that look alike come from different tables or passages of the source.

As for `Cc1ncc([N+](=O)[O-])n1CCO` [metronidazole, 1-(2-hydroxyethyl)-2-methyl-5-nitroimidazole], the aqueous solubility entry in data set [1] is “about 100 mg./10 ml”. In data set [2], the “ethanol content at optimum solubility in water-ethanol mixtures” value was “about 80%”. In data set [2], the solubility entry is given as “more than 500 mg./10 ml”. Further, the amount dissolved result is “more than 500 mg” in data set [2] (water and N,N-dimethylacetamide with addition of 2,2-dimethyl-1,3-dioxolane-4-methanol (FIG. 5)); “more than 500 mg” in data set [2] (water and N,N-dimethylacetamide with addition of nicotinamide (FIG. 6)); “more than 500 mg” in data set [2] (water and N,N-dimethylacetamide with addition of propylene glycol (FIG. 4)). For the same compound, the “pH range of greatest stability” value in data set [3] is on record as 5.0-7.5.
